From patent US10954287B2, “Ras binding peptides and methods of use” (Ra Pharmaceuticals, Inc., priority 2016, dated 2021)

system: GMPPNP-loaded H-Ras or GTP-loaded K-Ras; assay: Fluorescence polarization competition assay with TAMRA-labeled probe R4007; type: binding, human; conditions: 120 nM Ras, 30 nM probe R4007, 60 minutes at room temperature; read-out: Probe displacement (nM IC50)
Procedure: R4000 was evaluated for competition with a TAMRA labeled probe (R4007) based on peptide R4000. The assay was performed in 384-well black, non-binding plates (Greiner Bio-One, Monroe, N.C.). GMPPNP-loaded H-Ras or GTP-loaded K-Ras, diluted in FP assay buffer (20 mM Tris-HCl, pH 7.5, 50 mM NaCl, 5 mM MgCl2, 1 mM EDTA, 0.002% Triton-X-100) for a final concentration of 120 nM was incubated with 30 nM R4007 for 20 minutes at room temperature. R4000 was serially diluted, added to the assay and incubated for 60 minutes at room temperature. Fluorescence polarization was detected with a SpectraMax Paradigm plate reader (Molecular Devices, Sunnyvale, Calif.) using the Rhodamine FP detection cartridge (535 nm/595 nm). Data was analyzed using GraphPad Prism and Ki determined using One Site Ki Curve fitting model.
Peptides were evaluated for competition with R4007, a probe consisting of TAMRA-labeled R4000, using a fluorescence polarization (FP) competition assay. The assay was performed in 384-well black, non-binding plates (Greiner Bio-One, Monroe, N.C.). GMPPNP-loaded H-Ras or GTP- loaded K-Ras, diluted in FP assay buffer (20 mM Tris-HCl, pH 7.5, 50 mM NaCl, 5 mM MgCl2, 1 mM EDTA, 0.002% Triton-X-100) for a final concentration of 120 nM was incubated with 30 nM probe for 20 minutes at room temperature. Peptides were serially diluted, added to the assay and incubated for 60 minutes at room temperature. Fluorescence was detected with a SpectraMax Paradigm plate reader (Molecular Devices, Sunnyvale, Calif.) using the Rhodamine FP detection cartridge (535 nm/595 nm). Data was analyzed and Ki determined using a One Site Ki Curve fitting model. Percent inhibition for each data point was calculated relative to the maximal binding in test compound-free control wells (showing no probe displacement) and Ras-free control wells (showing no probe binding) and the half-maximal inhibitory concentration (IC50), based on probe displacement, was determined.

IC50 [nM]	SMILES
7.92	CCC[C@H](N)C(=O)N[C@H]1CSCc2cccc(c2)CSC[C@@H](C(N)=O)NC(=O)CN(C)C(=O)[C@H](Cc2ccc(F)cc2)N(C)C(=O)[C@H](Cc2ccc(O)cc2)NC(=O)[C@H](Cc2c[nH]c3ncccc23)NC(=O)[C@H](c2ccccc2)NC(=O)[C@H](C)N(C)C(=O)[C@H](Cc2cnc[nH]2)NC(=O)[C@H](CCCCN)NC(=O)[C@H](C(C)(C)C)NC(=O)[C@H](Cc2ccc(O)cc2)NC1=O (relative stereo) [Compound R4002, NVA-CYS*-TYR-TBG-LYS-HIS-NMA-PHG-7AW-TYR-MFF-SAR-CYS*-NH2]
1.06	CCC[C@H](NC(C)=O)C(=O)N[C@H]1CSCc2cccc(c2)CSC[C@@H](C(N)=O)NC(=O)[C@H](Cc2c[nH]cn2)NC(=O)[C@H](CCC)NC(=O)[C@H](Cc2c[nH]c3ncccc23)NC(=O)[C@H](CCC(=O)O)NC(=O)[C@H](Cc2c[nH]c3ncccc23)NC(=O)[C@H](Cc2c[nH]c3ncccc23)NC(=O)[C@H]([C@@H](C)O)NC(=O)[C@H](Cc2c[nH]cn2)NC(=O)[C@H](Cc2ccc(O)cc2)NC(=O)[C@H](C(C)(C)C)NC1=O (relative stereo) [Compound R4100, ACE-NVA-CYS*-TBG-TYR-HIS-THR-7AW-7AW-GLU-7AW-NVA-HIS-CYS*-NH2]
1.45	CCC[C@H](NC(C)=O)C(=O)N[C@H]1CSCc2cccc(c2)CSC[C@@H](C(N)=O)NC(=O)[C@H](C)N(C)C(=O)[C@H](Cc2ccc(F)cc2)N(C)C(=O)[C@H](Cc2ccc(O)cc2)NC(=O)[C@H](Cc2c[nH]c3ncccc23)NC(=O)[C@H](c2ccccc2)NC(=O)[C@H](C)N(C)C(=O)[C@H](Cc2c[nH]cn2)NC(=O)[C@H](CCCCN)NC(=O)[C@H](C(C)(C)C)NC(=O)[C@H](Cc2ccc(O)cc2)NC1=O (relative stereo) [Compound R4101, ACE-NVA-CYS*-TYR-TBG-LYS-HIS-NMA-PHG-7AW-TYR-MFF-NMA-CYS*-NH2]
1.82	CCC[C@H](NC(C)=O)C(=O)N[C@H]1CSCc2cccc(c2)CSC[C@@H](C(=O)N[C@H](CO)C(=O)N[C@H](C)C(=O)NCC(=O)N[C@@H](CS)C(=O)N[C@H](C(=O)N[C@H](C(=O)N[C@@H](CCSC)C(=O)O)[C@@H](C)CC)C(C)C)NC(=O)CN(C)C(=O)[C@H](Cc2ccc(F)cc2)N(C)C(=O)[C@H](Cc2ccc(O)cc2)NC(=O)[C@H](Cc2c[nH]c3ncccc23)NC(=O)[C@H](c2ccccc2)NC(=O)[C@H](C)N(C)C(=O)[C@H](Cc2c[nH]cn2)NC(=O)[C@H](CCCCN)NC(=O)[C@H](C(C)(C)C)NC(=O)[C@H](Cc2ccc(O)cc2)NC1=O (relative stereo) [Compound R4102, ACE-NVA-CYS*-TYR-TBG-LYS-HIS-NMA-PHG-7AW-TYR-MFF-SAR-CYS*-DSER-DALA-GLY-CYS-VAL-ILE-MET]
2	CCC[C@H](NC(=O)CCCC(=O)O)C(=O)N[C@H]1CSCc2cccc(c2)CSC[C@@H](C(N)=O)NC(=O)CN(C)C(=O)[C@H](Cc2ccc(F)cc2)N(C)C(=O)[C@H](Cc2ccc(O)cc2)NC(=O)[C@H](Cc2c[nH]c3ncccc23)NC(=O)[C@H](c2ccccc2)NC(=O)[C@H](C)N(C)C(=O)[C@H](Cc2c[nH]cn2)NC(=O)[C@H](CCCCN)NC(=O)[C@H](C(C)(C)C)NC(=O)[C@H](Cc2ccc(O)cc2)NC1=O (relative stereo) [Compound R4103, GLA-NVA-CYS*-TYR-TBG-LYS-HIS-NMA-PHG-7AW-TYR-MFF-SAR-CYS*-NH2]
3.29	CC(=O)N[C@@H](CO)C(=O)N[C@H]1CSCc2cccc(c2)CSC[C@@H](C(N)=O)NC(=O)CN(C)C(=O)[C@H](Cc2ccc(F)cc2)N(C)C(=O)[C@H](Cc2ccc(O)cc2)NC(=O)[C@H](Cc2c[nH]c3ncccc23)NC(=O)[C@H](c2ccccc2)NC(=O)[C@H](C)N(C)C(=O)[C@H](Cc2c[nH]cn2)NC(=O)[C@H](CCCCN)NC(=O)[C@H](C(C)(C)C)NC(=O)[C@H](Cc2ccc(O)cc2)NC1=O (relative stereo) [Compound R4104, ACE-SER-CYS*-TYR-TBG-LYS-HIS-NMA-PHG-7AW-TYR-MFF-SAR-CYS*-NH2]
3.31	CCC[C@H](NC(C)=O)C(=O)N[C@H]1CSCc2cccc(c2)CSC[C@@H](C(=O)N[C@H](CO)C(=O)N[C@@H](CCCCN)C(=O)NCC(=O)N[C@@H](CS)C(=O)N[C@H](C(=O)N[C@H](C(=O)N[C@@H](CCSC)C(=O)O)[C@@H](C)CC)C(C)C)NC(=O)CN(C)C(=O)[C@H](Cc2ccc(F)cc2)N(C)C(=O)[C@H](Cc2ccc(O)cc2)NC(=O)[C@H](Cc2c[nH]c3ncccc23)NC(=O)[C@H](c2ccccc2)NC(=O)[C@H](C)N(C)C(=O)[C@H](Cc2c[nH]cn2)NC(=O)[C@H](CCCCN)NC(=O)[C@H](C(C)(C)C)NC(=O)[C@H](Cc2ccc(O)cc2)NC1=O (relative stereo) [Compound R4105, ACE-NVA-CYS*-TYR-TBG-LYS-HIS-NMA-PHG-7AW-TYR-MFF-SAR-CYS*-DSER-LYS-GLY-CYS-VAL-ILE-MET]
8.38	CCC[C@H](NC(=O)CCCCCCNC(=O)[C@H](CC(C)C)NC(=O)[C@@H](O)[C@H](N)Cc1ccccc1)C(=O)N[C@H]1CSCc2cccc(c2)CSC[C@@H](C(N)=O)NC(=O)CN(C)C(=O)[C@H](Cc2ccc(F)cc2)N(C)C(=O)[C@H](Cc2ccc(O)cc2)NC(=O)[C@H](Cc2c[nH]c3ncccc23)NC(=O)[C@H](c2ccccc2)NC(=O)[C@H](C)N(C)C(=O)[C@H](Cc2c[nH]cn2)NC(=O)[C@H](CCCCN)NC(=O)[C@H](C(C)(C)C)NC(=O)[C@H](Cc2ccc(O)cc2)NC1=O (relative stereo) [Compound R4106, UBX-AHPA-NVA-CYS*-TYR-TBG-LYS-HIS-NMA-PHG-7AW-TYR-MFF-SAR-CYS*-NH2]
9.42	C#CC[C@H](NC(=O)CCOCCOCCOCCOCCNC(=O)[C@@H]1CSCc2cccc(c2)CSC[C@H](NC(=O)[C@H](CCC)NC(C)=O)C(=O)N[C@@H](Cc2ccc(O)cc2)C(=O)N[C@@H](C(C)(C)C)C(=O)N[C@@H](CCCCN)C(=O)N[C@@H](Cc2c[nH]cn2)C(=O)N(C)[C@@H](C)C(=O)N[C@@H](c2ccccc2)C(=O)N[C@@H](Cc2c[nH]c3ncccc23)C(=O)N[C@@H](Cc2ccc(O)cc2)C(=O)N(C)[C@@H](Cc2ccc(F)cc2)C(=O)N(C)CC(=O)N1)C(N)=O (relative stereo) [Compound R4107, ACE-NVA-CYS*-TYR-TBG-LYS-HIS-NMA-PHG-7AW-TYR-MFF-SAR-CYS*-PEG4PA-PRG-NH2]
9.45	CCC[C@H](NC(C)=O)C(=O)N[C@H]1CSCc2cccc(c2)CSC[C@@H](C(=O)O)NC(=O)CN(C)C(=O)[C@H](Cc2ccc(F)cc2)N(C)C(=O)[C@H](Cc2ccc(O)cc2)NC(=O)[C@H](Cc2c[nH]c3ncccc23)NC(=O)[C@H](c2ccccc2)NC(=O)[C@H](C)N(C)C(=O)[C@H](Cc2c[nH]cn2)NC(=O)[C@H](CCCCN)NC(=O)[C@H](C(C)(C)C)NC(=O)[C@H](Cc2ccc(O)cc2)NC1=O (relative stereo) [Compound R4108, ACE-NVA-CYS*-TYR-TBG-LYS-HIS-NMA-PHG-7AW-TYR-MFF-SAR-CYS*]
14.2	CCC[C@H](NC(C)=O)C(=O)N[C@H]1CSCc2cccc(c2)CSC[C@@H](C(=O)N[C@H](CO)C(=O)N[C@@H](CCCCN)C(=O)NCC(=O)N[C@@H](CSSC(C)(C)C)C(=O)N[C@H](C(=O)N[C@H](C(=O)N[C@@H](CCSC)C(=O)O)[C@@H](C)CC)C(C)C)NC(=O)CN(C)C(=O)[C@H](Cc2ccc(F)cc2)N(C)C(=O)[C@H](Cc2ccc(O)cc2)NC(=O)[C@H](Cc2c[nH]c3ncccc23)NC(=O)[C@H](c2ccccc2)NC(=O)[C@H](C)N(C)C(=O)[C@H](Cc2c[nH]cn2)NC(=O)[C@H](CCCCN)NC(=O)[C@H](C(C)(C)C)NC(=O)[C@H](Cc2ccc(O)cc2)NC1=O (relative stereo) [Compound R4109, ACE-NVA-CYS*-TYR-TBG-LYS-HIS-NMA-PHG-7AW-TYR-MFF-SAR-CYS*-DSER-LYS-GLY-TDSPA-VAL-ILE-MET]
16.4	CCC[C@H](NC(C)=O)C(=O)N[C@H]1CSCc2cccc(c2)CSC[C@@H](C(=O)N[C@H](CO)C(=O)N[C@@H](CCCCN)C(=O)NCC(=O)N[C@@H](CSSC(C)(C)C)C(=O)N[C@H](C(=O)N[C@H](C(=O)N[C@@H](CC(C)C)C(=O)O)C(C)C)C(C)C)NC(=O)CN(C)C(=O)[C@H](Cc2ccc(F)cc2)N(C)C(=O)[C@H](Cc2ccc(O)cc2)NC(=O)[C@H](Cc2c[nH]c3ncccc23)NC(=O)[C@H](c2ccccc2)NC(=O)[C@H](C)N(C)C(=O)[C@H](Cc2c[nH]cn2)NC(=O)[C@H](CCCCN)NC(=O)[C@H](C(C)(C)C)NC(=O)[C@H](Cc2ccc(O)cc2)NC1=O (relative stereo) [Compound R4110, ACE-NVA-CYS*-TYR-TBG-LYS-HIS-NMA-PHG-7AW-TYR-MFF-SAR-CYS*-DSER-LYS-GLY-TDSPA-VAL-VAL-LEU]
